Results reported in patent US20110311485A1, “1,2,4-OXADIAZOLE DERIVATIVES AND THEIR THERAPEUTIC USE” (ALMIRALL S.A., priority 2008, published 2011).

biological target: S1P1 receptors (Homo sapiens, UniProt P21453); test: 35S-GTPyS binding assay; type: biochemical; conditions: 35S-GTPyS binding on membranes; compound 0.1 nM-10 μM; 10 μM S1P as 100% maximum efficacy; 90 min at room temperature
Experimental: The effect of the compounds was measured using a 35S-GTPyS binding assay. Briefly, membranes were incubated in a buffer containing 20 mM HEPES pH 7.4, 100 mM NaCl, 10 mM MgCl2, 10 μM GDP, 50 μg/ml saponin and 0.2% fatty acid-free BSA at various concentrations (0.1 nM-10 μM) and 0.1 nM 35S-GTPyS. 10 μM S1P was used as 100% maximum efficacy. The assay was incubated for 90 min at room temperature with gentle mixing, and terminated by filtrating the reaction mixture through GF/C filter plates using the Manifold Filtration System. The filters were immediately washed with sodium phosphate pH 7.4 buffers. After drying the filter plates scintillant liquid were added to each well and 35S-GTPyS binding was measured on a Trilux Scintillation Counter.

S1P1 receptors, sequence (P21453 whole entry): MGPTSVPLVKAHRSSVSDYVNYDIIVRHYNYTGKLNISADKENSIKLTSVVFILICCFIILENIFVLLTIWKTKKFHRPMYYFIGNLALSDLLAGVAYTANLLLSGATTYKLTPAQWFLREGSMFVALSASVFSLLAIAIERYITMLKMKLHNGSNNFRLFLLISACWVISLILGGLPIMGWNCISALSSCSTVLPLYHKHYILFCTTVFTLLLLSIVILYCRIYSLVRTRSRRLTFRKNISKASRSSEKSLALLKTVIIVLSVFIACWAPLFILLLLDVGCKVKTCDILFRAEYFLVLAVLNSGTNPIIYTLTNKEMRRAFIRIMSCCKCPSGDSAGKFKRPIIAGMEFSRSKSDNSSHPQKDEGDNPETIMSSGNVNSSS

Row | EC50 [nM] | Compound
1 | 40 | CCn1nc(-c2nc(-c3ccc(S(N)(=O)=O)cc3)no2)c2c1CC(C)(C)CC2 [Example 5, 4-(5-(1-Ethyl-6,6-dimethyl-4,5,6,7-tetrahydro-1H-indazol-3-yl)-1,2,4-oxadiazol-3-yl)benzenesulfonamide]
2 | 17 | CCn1nc(-c2nc(-c3ccc(N4CCN(CCC(=O)O)CC4)cc3)no2)c2c1CC(C)(C)CC2 [Example 8, 3-(4-(4-(5-(1-ethyl-6,6-dimethyl-4,5,6,7-tetrahydro-1H-indazol-3-yl)-1,2,4-oxadiazol-3-yl)phenyl)piperazin-1-yl)propanoic Acid]
3 | 18 | CC1(C)CCc2c(-c3nc(-c4ccc(C(N)=O)cc4)no3)nn(Cc3ccccc3)c2C1 [Example 21, 4-(5-(1-Benzyl-6,6-dimethyl-4,5,6,7-tetrahydro-1H-indazol-3-yl)-1,2,4-oxadiazol-3-yl)benzamide]
4 | 48 | CCn1nc(-c2nc(-c3ccncc3C)no2)c2c1CC(C)(C)CC2 [Example 36, 5-(1-Ethyl-6,6-dimethyl-4,5,6,7-tetrahydro-1H-indazol-3-yl)-3-(3-methylpyridin-4-yl)-1,2,4-oxadiazole]
5 | 16 | CCn1nc(-c2nc(-c3ccc(CCC(=O)O)cc3C)no2)c2c1CC(C)(C)CC2 [Example 42, 3-(4-(5-(1-Ethyl-6,6-dimethyl-4,5,6,7-tetrahydro-1H-indazol-3-yl)-1,2,4-oxadiazol-3-yl)-3-methylphenyl)propanoic Acid]
6 | 8 | CCn1nc(-c2nc(-c3ccc(CCN)cc3C)no2)c2c1CC(C)(C)CC2 [Example 48, 2-(4-(5-(1-Ethyl-6,6-dimethyl-4,5,6,7-tetrahydro-1H-indazol-3-yl)-1,2,4-oxadiazol-3-yl)-3-methylphenyl)ethanamine]
7 | 31 | CCc1cc(-c2noc(-c3nn(CC(F)(F)F)c4c3CCC(C)(C)C4)n2)c(C)nc1O [Example 56, 5-(5-(6,6-Dimethyl-1-(2,2,2-trifluoroethyl)-4,5,6,7-tetrahydro-1H-indazol-3-yl)-1,2,4-oxadiazol-3-yl)-3-ethyl-6-methylpyridin-2-ol]
8 | 1.9 | CCn1nc(-c2nc(-c3ccc4c(c3)CCC(NCC(=O)O)C4)no2)c2c1CC(C)(C)CC2 (stereo not drawn) [Example 68, 2-(6-(5-(1-Ethyl-6,6-dimethyl-4,5,6,7-tetrahydro-1H-indazol-3-yl)-1,2,4-oxadiazol-3-yl)-1,2,3,4-tetrahydronaphthalen-2-ylamino)ethanoic Acid]
9 | 1.7 | Cc1cc(-c2noc(-c3noc4c3CCC(C)(C)C4)n2)cc(C)c1CCNCC(=O)O [Example 74]
10 | 16 | Cc1cc(-c2noc(-c3nn(C)c4c3CCC(C)(C)C4)n2)cc(C)c1CCN1CC(C(=O)O)C1 [Example 91, 1-(2,6-Dimethyl-4-(5-(1,6,6-trimethyl-4,5,6,7-tetrahydro-1H-indazol-3-yl)-1,2,4-oxadiazol-3-yl)phenethyl)azetidine-3-carboxylic Acid]
11 | 26 | CCn1nc(-c2nc(-c3ccc(S(=O)(=O)NCCC(=O)O)c(Cl)c3)no2)c2c1CC(C)(C)CC2 [Example 97, 3-(2-Chloro-4-(5-(1-ethyl-6,6-dimethyl-4,5,6,7-tetrahydro-1H-indazol-3-yl)-1,2,4-oxadiazol-3-yl)phenylsulfonamido)propanoic Acid]
12 | 146 | CCn1nc(-c2noc(-c3ccncc3)n2)c2c1CC(C)(C)CC2 [Example 99, 3-(1-Ethyl-6,6-dimethyl-4,5,6,7-tetrahydro-1H-indazol-3-yl)-5-(pyridin-4-yl)-1,2,4-oxadiazole]
13 | 8.5 | Cc1cc(-c2noc(-c3nn(C)c4c3CCC(C)(C)C4)n2)cc(C)c1CCNC(C)(C)C [Example 104, N-(2-{2,6-dimethyl-4-[5-(1,6,6-trimethyl-4,5,6,7-tetrahydro-1H-indazol-3-yl)-1,2,4-oxadiazol-3-yl]phenyl}ethyl)-2-methylpropan-2-amine]
14 | 11.7 | CCn1nc(-c2nc(-c3ccc(S(=O)(=O)NCCC(=O)O)cc3C)no2)c2c1CC(C)(C)CC2 [Example 117, N-({4-[5-(1-ethyl-6,6-dimethyl-4,5,6,7-tetrahydro-1H-indazol-3-yl)-1,2,4-oxadiazol-3-yl]-3-methylphenyl}sulfonyl)-beta-alanine]
15 | 3.6 | CCn1nc(-c2nc(-c3cc(C)c(CC(N)=O)c(C)c3)no2)c2c1CC(C)(C)CC2 [Example 137, 2-{4-[5-(1-ethyl-6,6-dimethyl-4,5,6,7-tetrahydro-1H-indazol-3-yl)-1,2,4-oxadiazol-3-yl]-2,6-dimethylphenyl}acetamide]
16 | 13 | CCc1cc(-c2noc(-c3nn(CC)c4c3CCC(C)(C)C4)n2)c(C)nc1CCN [Example 138, (2-{3-ethyl-5-[5-(1-ethyl-6,6-dimethyl-4,5,6,7-tetrahydro-1H-indazol-3-yl)-1,2,4-oxadiazol-3-yl]-6-methylpyridin-2-yl}ethyl)amine]
17 | 7.3 | Cc1cc(-c2nnc(-c3nn(C)c4c3CCC(C)(C)C4)s2)cc(C)c1OCCN [Example 139, (2-{2,6-dimethyl-4-[5-(1,6,6-trimethyl-4,5,6,7-tetrahydro-1H-indazol-3-yl)-1,3,4-thiadiazol-2-yl]phenoxy}ethyl)amine]
18 | 5.1 | Cc1cc(-c2noc(-c3nn(C)c4c3CCC(C)(C)C4)n2)cc(C)c1CCN1CCC(CC(=O)O)CC1 [Example 143, [1-(2-{2,6-dimethyl-4-[5-(1,6,6-trimethyl-4,5,6,7-tetrahydro-1H-indazol-3-yl)-1,2,4-oxadiazol-3-yl]phenyl}ethyl)piperidin-4-yl]acetic acid]
19 | 1.4 | Cc1cc(-c2noc(-c3nn(C)c4c3CCC(C)(C)C4)n2)cc(C)c1CCN[C@@H](C)C(=O)O [Example 146, N-(2-{2,6-dimethyl-4-[5-(1,6,6-trimethyl-4,5,6,7-tetrahydro-1H-indazol-3-yl)-1,2,4-oxadiazol-3-yl]phenyl}ethyl)-L-alanine]
20 | 0.56 | CCn1nc(-c2nc(-c3ccc(CCNCC(=O)O)c(C(F)(F)F)c3)no2)c2c1CC(C)(C)CC2 [Example 162, N-{2-[4-[5-(1-ethyl-6,6-dimethyl-4,5,6,7-tetrahydro-1H-indazol-3-yl)-1,2,4-oxadiazol-3-yl]-2-(trifluoromethyl)phenyl]ethyl}glycine]
21 | 8.3 | Cc1cc(-c2noc(-c3noc4c3CCC(C)(C)C4)n2)cc(C)c1CC(O)CO (stereo not drawn) [Example 170, 3-{4-[5-(6,6-dimethyl-4,5,6,7-tetrahydro-1,2-benzisoxazol-3-yl)-1,2,4-oxadiazol-3-yl]-2,6-dimethylphenyl}propane-1,2-diol]
22 | 10 | CCn1nc(-c2nc(-c3cccc4[nH]ccc34)no2)c2c1CC(C)(C)CC2 [Example 187, 5-(1-ethyl-6,6-dimethyl-4,5,6,7-tetrahydro-1H-indazol-3-yl)-3-(1H-indol-4-yl)-1,2,4-oxadiazole]
23 | 12 | Cn1nc(-c2nnc(-c3ccc(CCN4CC(C(=O)O)C4)c(C(F)(F)F)c3)s2)c2c1CC(C)(C)CC2 [Example 198, 1-(2-(trifluoromethyl)-4-(5-(1,6,6-trimethyl-4,5,6,7-tetrahydro-1H-indazol-3-yl)-1,3,4-thiadiazol-2-yl)phenethyl)azetidine-3-carboxylic Acid]

Row | Compound | EC50 [nM]
24 | Cc1cc(-c2noc(-c3nn(C)c4c3CCC(C)(C)C4)n2)cc(C)c1CCO [Example 141, 2-{2,6-dimethyl-4-[5-(1,6,6-trimethyl-4,5,6,7-tetrahydro-1H-indazol-3-yl)-1,2,4-oxadiazol-3-yl]phenyl}ethanol] | 4.6
